According to article PMC6093661, “Vitamin E hydroquinone is an endogenous regulator of ferroptosis via redox control of 15-lipoxygenase” (PLoS ONE, 2018):

Tests used:
Q7 cells [1] = test: Cellular lipid oxidation assay (BODIPY 581/591 C11, RSL3-treated Q7 cells); assay type: cell-based, mouse; conditions: RSL3 2 μM, 6-point titration, time-lapse microscopy
Procedure: Ferroptosis was induced by RSL3 (2 μM final concentration) in Q7 cells as described above. The protective activity of co-treated compounds was assessed also as described above. The rate of cellular lipid oxidation after GPX4 inhibition was assessed by monitoring the time-dependent changes in green fluorescence of cells pre-labeled with BODIPY™ 581/591 C11 dye (5 μM, 30-minute labeling period; Thermo Fisher/Invitrogen) using the IncuCyte S3 live-cell imaging apparatus (Sartorius) using a 10x objective. Cells (three images per field; at least three replicate wells per condition) were imaged once hourly for up to 18 hours after compound and RSL3 addition. Quantification of cell images was performed using the IncuCyte Zoom software using the Basic Analyzer tool which utilized an algorithm that calculated the total green-positive area per well where “green-positive” was defined as 1.45 times the local background-subtracted fluorescent signal. After a 2-3-hour lag period post-RSL3 treatment, the cellular green fluorescence signal began increasing. The rate of change in total green-positive area per well from 3–9 hours post-compound treatment was calculated, then expressed relative to that observed in the RSL3-only control treatment group, which was defined as 100%.

Q7 cells [2] = test: Intracellular quantification of αT, αTQ and αTHQ in Q7 cells (LC-MS/MS, succinate capping); conditions: all cases tested (basal, αT- or αTQ-supplemented)
[3] = ORAC (oxygen radical absorbance capacity) assay; conditions: average of 25 and 12.5 μM compound; mean, SEM, n = 6
Procedure: ORAC assay kits were purchased from Cell Biolabs. Assays were performed per the manufacturer’s instructions for lipophilic samples with minor modifications. DMSO stock solutions of compounds were diluted in an anaerobic glovebox to final concentrations of 25 and 12.5 μM in triplicate. A standard curve of Trolox® between 0–100 μM in triplicate per concentration was also generated on each assay plate. Diluted compounds and standards were removed from the glovebox and reactions initiated by addition of aerobic fluorescein reagent and radical initiator. Fluorescein fluorescence was monitored at excitation wavelength of 480 nm and emission wavelength of 520 nm every minute for one hour. AUC analysis was performed as described in the kit protocol. The “Trolox equivalents” at each concentration of test compound were calculated and the average Trolox equivalents at the two compound concentrations are presented. The errors were determined by propagating errors from the SEMs of the triplicate determinations to the averages across the two triplicate determinations.

[4] = biological target: T1, Rabbit 15-lipoxygenase (rLOX15) (Oryctolagus cuniculus, UniProt P12530); test: Lipoxygenase enzyme inhibition assay; assay type: biochemical; conditions: rabbit 15-LO
T1 construct: purchased Enzo Life Sciences, Inc. BML-PL015
T1 sequence (P12530 1-663): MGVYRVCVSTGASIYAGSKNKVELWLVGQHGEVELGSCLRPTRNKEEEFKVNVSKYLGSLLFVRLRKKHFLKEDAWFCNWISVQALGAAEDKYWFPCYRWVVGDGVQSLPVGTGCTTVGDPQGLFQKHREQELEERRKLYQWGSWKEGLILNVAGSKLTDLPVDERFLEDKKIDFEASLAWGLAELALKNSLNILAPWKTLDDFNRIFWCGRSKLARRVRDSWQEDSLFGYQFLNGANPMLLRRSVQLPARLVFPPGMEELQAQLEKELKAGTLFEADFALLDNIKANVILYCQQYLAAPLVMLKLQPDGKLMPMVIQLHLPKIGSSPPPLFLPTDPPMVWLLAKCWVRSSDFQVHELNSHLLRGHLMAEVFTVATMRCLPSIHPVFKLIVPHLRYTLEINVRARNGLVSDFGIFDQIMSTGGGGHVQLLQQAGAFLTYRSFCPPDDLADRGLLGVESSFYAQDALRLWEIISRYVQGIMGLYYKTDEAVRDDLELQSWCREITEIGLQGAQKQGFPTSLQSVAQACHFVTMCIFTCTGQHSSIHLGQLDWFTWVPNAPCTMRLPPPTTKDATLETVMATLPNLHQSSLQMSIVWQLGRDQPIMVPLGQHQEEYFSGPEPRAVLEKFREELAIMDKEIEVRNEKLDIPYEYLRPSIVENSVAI
Procedure: Rabbit 15-lipoxygenase (rLOX15, part number BML-PL015, lot number 3-P9009a) was obtained from Enzo Life Sciences, Inc. Sodium cholate (part number C6445, lot number 094K0209) was obtained from Sigma-Aldrich.
Stock solutions of test compounds were prepared in DMSO and then diluted to final assay concentrations in cholate mix such that final cholate and DMSO concentrations were maintained at 0.2%.

[5] = biological target: T2, Soybean 15-lipoxygenase (SLO) (Glycine max, UniProt P08170); test: EPR spectroscopy of lipoxygenase active-site iron redox state; assay type: biochemical; conditions: SLO oxidised with lipid-OOH set to 100% Fe3+; addition of compound
T2 construct: purchased Cayman Chemical 60700
T2 sequence (P08170 1-839): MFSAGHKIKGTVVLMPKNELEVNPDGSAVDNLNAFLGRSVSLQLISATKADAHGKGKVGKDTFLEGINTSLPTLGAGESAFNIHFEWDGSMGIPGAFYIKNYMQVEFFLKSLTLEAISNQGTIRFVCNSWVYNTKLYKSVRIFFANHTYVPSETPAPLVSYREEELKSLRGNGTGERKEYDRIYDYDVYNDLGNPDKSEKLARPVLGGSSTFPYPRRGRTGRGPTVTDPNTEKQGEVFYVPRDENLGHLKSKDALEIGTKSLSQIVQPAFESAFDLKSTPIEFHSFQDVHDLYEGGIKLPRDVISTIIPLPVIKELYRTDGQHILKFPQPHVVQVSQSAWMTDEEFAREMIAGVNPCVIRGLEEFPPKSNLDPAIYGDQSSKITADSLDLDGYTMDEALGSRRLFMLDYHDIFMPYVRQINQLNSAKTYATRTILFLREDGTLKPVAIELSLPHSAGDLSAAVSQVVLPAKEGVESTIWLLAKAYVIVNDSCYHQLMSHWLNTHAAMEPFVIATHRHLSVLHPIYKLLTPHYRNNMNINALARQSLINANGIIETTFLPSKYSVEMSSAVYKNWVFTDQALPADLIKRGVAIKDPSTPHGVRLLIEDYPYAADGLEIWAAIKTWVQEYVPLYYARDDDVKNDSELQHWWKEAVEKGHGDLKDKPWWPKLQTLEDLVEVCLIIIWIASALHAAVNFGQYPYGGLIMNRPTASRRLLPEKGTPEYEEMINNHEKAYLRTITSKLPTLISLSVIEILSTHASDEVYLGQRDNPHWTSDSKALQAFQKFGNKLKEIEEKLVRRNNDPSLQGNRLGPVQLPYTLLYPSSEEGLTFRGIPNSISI
Procedure: Lipoxygenase: Soybean 15-lipoxygenase (SLO) was buffer exchanged into 50 mM borate buffer, pH 9.0 containing 10% (v/v) glycerol. The resulting protein solution was concentrated to approximately 100 μM, based upon the supplier’s activity per mL and specific activity per mg. The active-site iron oxidation state was further evaluated by EPR under three treatment conditions: 1) No treatment, 2) oxidation with 3-fold molar excess of lipid hydroperoxide (final concentration of 300 μM) from an ethanol stock, 3) oxidation with 3-fold molar excess of lipid hydroperoxide followed by 10-fold molar excess of αTHQ or αT3HQ (final concentration of 1 mM) from a DMSO stock. All samples contained the same final concentrations of ethanol and DMSO as sample 3. The EPR spectra of buffer alone were also evaluated to allow for baseline subtraction.
CW-EPR spectra were recorded at 150 K on a Bruker ELEXYS E540 spectrometer fitted with an X-band microwave bridge, a Super High Sensitivity Resonator (SHQ), and a Nitrogen VT apparatus. The spectra were recorded at 9.43 GHz with 1.002 mW microwave power, 10 G modulation amplitude, 100 kHz modulation frequency, 25 scans.

[6] = test system: Mouse striatal Q7 cells (STHdhQ7/Q7); test: RSL3 ferroptosis cell rescue (cellular survival assay, CellTiter-Glo)
[7] = Radical-trapping antioxidant (RTA) activity assay in DOPC liposomes; conditions: 50 μM compound, 2 mol% in DOPC liposomes, BODIPY 581/591 C11 quenching; liposome-only control = 1

Cc1c(C)c(O)c(CC[C@](C)(O)CCC[C@H](C)CCC[C@H](C)CCCC(C)C)c(C)c1O [αTHQ, α-tocopherol hydroquinone]
effect on RSL3-induced lipid oxidation (BODIPY 581/591 C11 oxidation) (Q7 cells [1]): prevented | cellular αTHQ exposures exceed those of αTQ (Q7 cells [2]): 3- to 4 fold | ORAC Antioxidant Activity Assay Trolox Equiv. [3]: 0.106 Trolox Equiv. | 15-LO inhibitory potency fold compared with αTQ, αT, or αTCC [4]: > 40 fold | IC50 ([4]; 50 μM arachidonic acid substrate): 2450 nM | activity at 100 µM ([4]; compound 100 μM, read-out: 15-Lipoxygenase Enzyme Assay % activity at 100 μM): 15% | decrease in the SLO-Fe3+ signal [5]: 50% | EC50 ([6]; Mus musculus, 18 h, read-out: RSL3 Ferroptosis Cell Assay Average EC50, Q7 cells, RSL3 2 μM, 18 h co-treatment, CellTiter-Glo 2.0): 90 ± 30 nM | fold more potent than αT in preventing ferroptotic cell death ([6]; Q7 cells, RSL3, EC50 ratio vs αT): 57 fold | Radical Trapping Assay AUC (Rel. Control) [7]: 1.855
